Laboratory results reported in patent US9422274B2, “Oxazolidinone derivatives and composition for preventing or treating hepatitis C containing the same” (KOREA INSTITUTE OF SCIENCE AND TECHNOLOGY, priority 2013, dated 2016).

How the values were obtained:
[1] = test system: Hepatitis C virus; assay: Anti-viral activity test (HCVcc, Type 2a), JFH 5a-Rluc luciferase in Huh7.5.1 cell line; format: cell-based; settings: for inhibition: Huh-7.5.1, luciferase activity, negative control = 100%, Huh7.5.1 cells infected with JFH 5a-Rluc, read-out: HCV inhibition rate %; for EC50: Huh-7.5.1, read-out: EC50 (concentration of compound to inhibit the 50% of viral growth)
Protocol: The inhibitory effect of the oxazolidinone compounds on HCV replicon and NS5A were HCV was tested by the method disclosed in KR-A 10-2010-0007937 or US-A 2010/0215696.
The cell lines containing replicon were prepared by preparing JFH 5a-Rluc (plasmid expressing Renilla luciferase reporter protein) RNA according to the method disclosed in the documents, introducing the JFH 5a-Rluc RNA into host cell lines (Huh7.5.1 cell line) by electroporation and infecting the host cell lines (Zhnog et al., Proc. Natl. Acad. Sci. USA, 102, 9294-9299). After the infected cell lines were cultured with or without the treatment of the oxazolidinone compound, the luciferase activity was detected to obtain the inhibitory effect of […] replicon replication. EC50) of the compound was determined by performing the test at various concentrations of the compound.
The compounds Example 1 to 17 were tested for anti-viral activity on Hepatitis C virus, according to the method of KR10-2010-0007937 (published on Jan. 22, 2010) or US2010/0215696 (published on Aug. 26, 2010).
The cell lines containing replicon were prepared by preparing JFH 5a-Rluc (plasmid expressing Renilla luciferase reporter protein) RNA according to the method disclosed in the documents, introducing the JFH 5a-Rluc RNA into host cell lines (Huh7.5.1 cell line) by electroporation and infecting the host cell lines (Zhnog et al., Proc. Natl. Acad. Sci. USA, 102, 9294-9299). After the infected cell lines were cultured with or without the treatment of 1 mM of the oxazolidinone compounds of Examples 1 to 17, the host cell lines were obtained on 1, 2 and 3 days after treatment, and the luciferase activity produced from the host cells was measured.
The luciferase activity of negative control which was not treated with the oxazolidinone compound is set to 100%. At various amounts of the oxazolidinone compounds, the luciferase activities were calculated based on the negative control to obtain the inhibition rate of HCV (%). The positive control was Interferon (INF)(Sigma, SRP4595).

[2] = test system: Hepatitis C virus; assay: as above; format: cell-based, Hepatitis C virus (HCVcc; settings: for inhibition at 0.001 µM: Hepatitis C virus, Huh-7.5.1, read-out: inhibition rate; for remnant HCV amount: treated at a concentration of 1 nM

## COC(=O)N[C@H](C(=O)N1CCC[C@H]1c1ncc(-c2ccc(-c3ccc(N4C[C@H](Cn5cc(CO)nn5)OC4=O)cc3F)cc2)[nH]1)C(C)C [Example 5, Methyl ((S)-1-((S)-2-(5-(2′-fluoro-4′-((R)-5-((4-(hydroxymethyl)-1H-1,2,3-triazol-1-yl)methyl)-2-oxooxazolidin-3-yl)-[1,1′-biphenyl]-4-yl)-1H-imidazol-2-yl)pyrrolidin-1-yl)-3-methyl-1-oxobutan-2-yl)carbamate]
[1]
  inhibition: 95.8%

## COC(=O)N[C@H](C(=O)N1CCC[C@H]1c1ncc(-c2ccc(-c3ccc(N4C[C@H](Cn5cc(CCO)nn5)OC4=O)cc3F)cc2)[nH]1)C(C)C [Example 6, Methyl ((S)-1-((S)-2-(5-(2′-fluoro-4′-((R)-5-((4-(2-hydroxyethyl)-1H-1,2,3-triazol-1-yl)methyl)-2-oxooxazolidin-3-yl)-[1,1′-biphenyl]-4-yl)-1H-imidazol-2-yl)pyrrolidin-1-yl)-3-methyl-1-oxobutan-2-yl)carbamate]
[1]
  inhibition: 84.4%

## COC(=O)N[C@H](C(=O)N1CCC[C@H]1c1ncc(-c2ccc(-c3ccc(N4C[C@H](CNC(C)=O)OC4=O)cc3F)cc2)[nH]1)C(C)C [Example 12, Methyl ((S)-1-((S)-2-(5-(4′-((S)-5-(acetamidomethyl)-2-oxooxazolidin-3-yl)-2′-fluoro-[1,1′-biphenyl]-4-yl)-1H-imidazol-2-yl)pyrrolidin-1-yl)-3-methyl-1-oxobutan-2-yl)carbamate]
[1]
  inhibition: 99.8%
[2]
  inhibition at 0.001 µM: 27%
  remnant HCV amount: 73%

## COC(=O)N[C@H](C(=O)NC[C@H]1CN(c2ccc(-c3ccc(-c4cnc([C@@H]5CCCN5C(=O)[C@@H](NC(=O)OC)C(C)C)[nH]4)cc3)c(F)c2)C(=O)O1)C(C)C [Example 15, Methyl ((S)-1-((((S)-3-(2-fluoro-4′-(2-((S)-1-((methoxycarbonyl)-L-valyl)pyrrolidin-2-yl)-1H-imidazol-5-yl)-[1,1′-biphenyl]-4-yl)-2-oxooxazolidin-5-yl)methyl)amino)-3-methyl-1-oxobutan-2-yl)carbamate]
[1]
  inhibition: 99.8%
  EC50: 1 nM
[2]
  inhibition at 0.001 µM: 44.3%
  remnant HCV amount: 55.7%

## COC(=O)N[C@H](C(=O)N1CCC[C@H]1c1ncc(-c2ccc(-c3ccc(N4C[C@H](Cn5cc(COCc6ccccc6)nn5)OC4=O)cc3F)cc2)[nH]1)C(C)C [Example 9, Methyl ((S)-1-((S)-2-(5-(4′-((R)-5-((4-((benzyloxy)methyl)-1H-1,2,3-triazol-1-yl)methyl)-2-oxooxazolidin-3-yl)-2′-fluoro-[1,1′-biphenyl]-4-yl)-1H-imidazol-2-yl)pyrrolidin-1-yl)-3-methyl-1-oxobutan-2-yl)carbamate]
[1]
  inhibition: 97.3%
  EC50: 17.4 nM
[2]
  inhibition at 0.001 µM: 97%
  remnant HCV amount: 3.0%

## COCc1cn(C[C@H]2CN(c3ccc(-c4ccc(-c5cnc([C@@H]6CCCN6C(=O)[C@@H](NC(=O)OC)C(C)C)[nH]5)cc4)c(F)c3)C(=O)O2)nn1 [Example 7, Methyl ((S)-1-((S)-2-(5-(2′-fluoro-4′-((R)-5-((4-(methoxymethyl)-1H-1,2,3-triazol-1-yl)methyl)-2-oxooxazolidin-3-yl)-[1,1′-biphenyl]-4-yl)-1H-imidazol-2-yl)pyrrolidin-1-yl)-3-methyl-1-oxobutan-2-yl)carbamate]
[1]
  inhibition: 83.3%

## COC(=O)N[C@H](C(=O)N1CCC[C@H]1c1ncc(-c2ccc(-c3ccc(N4C[C@H](Cn5cc(COC(C)=O)nn5)OC4=O)cc3F)cc2)[nH]1)C(C)C [Example 8, 1-(((R)-3-(2-Fluoro-4′-(2-((S)-1-((methoxycarbonyl)-L-valyl)pyrrolidin-2-yl)-1H-imidazol-5-yl)-[1,1′-biphenyl]-4-yl)-2-oxooxazolidin-5-yl)methyl)-1H-1,2,3-triazol-4-yl)methyl acetate]
[1]
  inhibition: 79.8%

## CC(=O)N1CCC[C@H]1c1ncc(-c2ccc(-c3ccc(N4C[C@H](Cn5ccnn5)OC4=O)cc3F)cc2)[nH]1 [Example 2, (R)-5-((1H-1,2,3-Triazol-1-yl)methyl)-3-(4′-(2-((S)-1-acetylpyrrolidin-2-yl)-1H-imidazol-5-yl)-2-fluoro-[1,1′-biphenyl]-4-yl)oxazolidin-2-one]
[1]
  inhibition: 32%

## CC(=O)NC[C@H]1CN(c2ccc(-c3ccc(-c4cnc([C@@H]5CCCN5C(=O)OC(C)(C)C)[nH]4)cc3)c(F)c2)C(=O)O1 [Example 13, tert-Butyl (S)-2-(5-(4′-((S)-5-(acetamidomethyl)-2-oxooxazolidin-3-yl)-2′-fluoro-[1,1′-biphenyl]-4-yl)-1H-imidazol-2-yl)pyrrolidine-1-carboxylate]
[1]
  inhibition: 46.2%

## COC(=O)N[C@H](C(=O)N1CCC[C@H]1c1ncc(-c2ccc(-c3ccc(N4C[C@H](Cn5cc(-c6ccccc6)nn5)OC4=O)cc3F)cc2)[nH]1)C(C)C [Example 11, Methyl ((S)-1-((S)-2-(5-(2′-fluoro-4′-((R)-2-oxo-5-((4-phenyl-1H-1,2,3-triazol-1-yl)methyl)oxazolidin-3-yl)-[1,1′-biphenyl]-4-yl)-1H-imidazol-2-yl)pyrrolidin-1-yl)-3-methyl-1-oxobutan-2-yl)carbamate]
[1]
  inhibition: 96.7%
[2]
  inhibition at 0.001 µM: 95.2%
  remnant HCV amount: 6.8%

## CC(=O)NC[C@H]1CN(c2ccc(-c3ccc(-c4cnc([C@@H]5CCCN5C(C)=O)[nH]4)cc3)c(F)c2)C(=O)O1 [Example 14, N—(((S)-3-(4′-(2-((S)-1-acetylpyrrolidin-2-yl)-H-imidazol-5-yl)-2-fluoro-[1,1′-biphenyl]-4-yl)-2-oxooxazolidin-5-yl)methyl)acetamide]
[1]
  inhibition: 28%

## COC(=O)N[C@H](C(=O)N1CCC[C@H]1c1ncc(-c2ccc(-c3ccc(N4C[C@H](Cn5ccnn5)OC4=O)cc3F)cc2)[nH]1)c1ccccc1 [Example 4, methyl ((S)-2-((S)-2-(5-(4′-((R)-5-((1H-1,2,3-triazol-1-yl)methyl)-2-oxooxazolidin-3-yl)-2′-fluoro-[1,1′-biphenyl]-4-yl)-1H-imidazol-2-yl)pyrrolidin-1-yl)-2-oxo-1-phenylethyl)carbamate]
[1]
  inhibition: 95.2%

## COC(=O)N[C@H](C(=O)NC[C@H]1CN(c2ccc(-c3ccc(-c4cnc([C@@H]5CCCN5C(=O)OC(C)(C)C)[nH]4)cc3)c(F)c2)C(=O)O1)C(C)C [Example 16, tert-Butyl (S)-2-(5-(2′-fluoro-4′-((S)-5-(((S)-2-((methoxycarbonyl)amino)-3-methylbutanamido)methyl)-2-oxooxazolidin-3-yl)-[1,1-biphenyl]-4-yl)-1H-imidazol-2-yl)pyrrolidine-1-carboxylate]
[1]
  inhibition: 58%

## COC(=O)N[C@H](C(=O)N1CCC[C@H]1c1ncc(-c2ccc(-c3ccc(N4C[C@H](Cn5ccnn5)OC4=O)cc3F)cc2)[nH]1)C(C)C [Example 3, Methyl ((S)-1-((S)-2-(5-(4′-((R)-5-((1H-1,2,3-triazol-1-yl)methyl)-2-oxooxazolidin-3-yl)-2′-fluoro-[1,1′-biphenyl]-4-yl)-1H-imidazol-2-yl)pyrrolidin-1-yl)-3-methyl-1-oxobutan-2-yl)carbamate]
[1]
  inhibition: 99.8%
  EC50: 0.98 nM
[2]
  inhibition at 0.001 µM: 78.9%
  remnant HCV amount: 21.1%

## COC(=O)N[C@H](C(=O)N1CCC[C@H]1c1ncc(-c2ccc(-c3ccc(N4C[C@H](Cn5cc(CNC(C)=O)nn5)OC4=O)cc3F)cc2)[nH]1)C(C)C [Example 10, Methyl ((S)-1-((S)-2-(5-(4′-((R)-5-((4-(acetamidomethyl)-1H-1,2,3-triazol-1-yl)methyl)-2-oxooxazolidin-3-yl)-2′-fluoro-[1,1′-biphenyl]-4-yl)-1H-imidazol-2-yl)pyrrolidin-1-yl)-3-methyl-1-oxobutan-2-yl)carbamate]
[1]
  inhibition: 32.8%

## CC(C)(C)OC(=O)N1CCC[C@H]1c1ncc(-c2ccc(-c3ccc(N4C[C@H](Cn5ccnn5)OC4=O)cc3F)cc2)[nH]1 [Example 1, tert-Butyl(S)-2-(5-(4′-((R)-5-((1H-1,2,3-triazol-1-yl)methyl)-2-oxooxazolidin-3-yl)-2′-fluoro-[1,1′-biphenyl]-4-yl)-1H-imidazol-2-yl)pyrrolidine-1-carboxylate]
[1]
  inhibition: 31.7%

## COC(=O)N[C@H](C(=O)NC[C@H]1CN(c2ccc(-c3ccc(-c4cnc([C@@H]5CCCN5C(C)=O)[nH]4)cc3)c(F)c2)C(=O)O1)C(C)C [Example 17, Methyl ((S)-1-((((S)-3-(4′-(2-((S)-1-acetylpyrrolidin-2-yl)-1H-imidazol-5-yl)-2-fluoro-[1,1′-biphenyl]-4-yl)-2-oxooxazolidin-5-yl)methyl)amino)-3-methyl-1-oxobutan-2-yl)carbamate]
[1]
  inhibition: 38.1%
